Assay [1] concerns peritoneal macrophages isolated from C3H/HeN mice. Kind of assay: IL-12 production in peritoneal macrophages from C3H/HeN mice (LPS + IFN-γ). The class given is cell-based. To be noted: LPS 200 ng/ml, IFN-γ 2 U/ml, 24 hours, various L3 concentrations (FIG. 14). As to the method:
Ice-cooled phosphate buffered saline (PBS) was injected into abdominal cavities of C3H/HeN mice. After the abdomen of each mouse was massaged, the PBS was collected and centrifuged to obtain macrophages. A cell suspension was prepared by suspending the obtained macrophages in RPMI1640 medium (Sigma) containing 200 ng/ml of LPS, 2 U/ml of recombinant mouse interferon-γ (IFN-γ) and 10% fetal bovine serum at a concentration of 1×10^6 cells/ml. 100 μl of the cell suspension was dispensed on a 96-well flat-bottom plate and further 100 μl of L3 solution of which concentration was adjusted to be twice the final concentration in the RPMI1640 medium was added thereto. Then, the cells were cultured at 37° C. in the presence of 5% CO2 for 24 hours.
(§1) Subsequently, the plate was centrifuged to collect the culture supernatant. The IL-12 concentration in the supernatant was measured as described above.

Assay [2] has as its system IL-12. Kind of assay: Plasma IL-12 level (IL-12 p70 ELISA) in MRL-lpr/lpr mice after administration. The class given is in vivo. The following applies: day before autopsy. The text has this: Plasma IL-12 levels were examined using MRL-lpr/lpr mice treated with and without L4. Macrophages from MRL-lpr/lpr mice are known to markedly produce IL-12 and their serum IL-12 level is high (J. Exp. Med., 183, pp. 1447-1459 (1996)).
(§2) MRL lpr/lpr mice, C57BL/6 mice and ICR mice as normal controls were purchased from Japan Charles River Co., Ltd. and preliminarily maintained for several weeks before divided into groups. Blood was collected from the orbital venous plexus, and they were allocated according to the plasma creatinine level (CRE) as a first marker so that there would be no difference in the average value and the standard deviation for the creatinine level among the groups. They were also grouped so that there would be no difference in the plasma nitrogen level (BUN), white blood cell count (WBC), platelet count (PLT) and weight between groups as far as possible.
The test substances were administered from the next day of the grouping. […]
Blood was collected from the orbital venous plexus at the time of the grouping and on the day before the autopsy. The IL-12 concentration in blood plasma was measured by using an IL-12 p70 ELISA kit (Endogen, Inc.).
(§3) The average value and the standard deviation were calculated for the measured values obtained as above and the statistical significance was analyzed by Williams' multiple comparison test. […]
In general terms: ELISA stands for enzyme-linked immunosorbent assay.

The test system of assay [3] is MRL-lpr/lpr mice. Kind of assay: Hematological test: white blood cell count (WBC) in blood of MRL-lpr/lpr mice. The class given is in vivo. The following applies: day before autopsy.
Source text: as §2
The test substances were administered from the next day of the grouping. Each of the test substances was dissolved in distilled water at a predetermined concentration to prepare a solution to be administered. The solution was intermittently administered 3 times per week for 4 weeks (total 12 doses). […]
Blood was collected from the orbital venous plexus at the time of the grouping and on the day before the autopsy. The white blood cell count (WBC) was measured by using an automatic cytometer for multiple test items (Sysmex K-2000: Toa Medical Electronics).
as §3

Assay [4] concerns synovial cells collected from human rheumatoid arthritis patients. In words: IL-12 p70 production in synovial cells from rheumatoid arthritis patients (LPS + IFN-γ). The format is cell-based. To be noted: LPS 500 ng/ml, IFN-γ 50 U/ml. Here is the method:
A cell suspension was prepared by suspending synovial cells collected from human rheumatoid arthritis patients in RPMI1640 medium (Sigma) containing 500 ng/ml of LPS, 50 U/ml of recombinant mouse interferon-γ (IFN-γ) and 10% fetal bovine serum at a concentration of 1×10^6cells/ml.
100 μl of the aforementioned cell suspension was dispensed to a 96-well flat-bottom plate and further 100 μl of L4 solution of which concentration was adjusted to be twice the final concentration in the RPMI1640 medium was added thereto. Then, the cells were cultured at 37° C. in the presence of 5% CO2 for 24 hours.
as §1

For assay [5], the system named is peritoneal macrophages isolated from C57BL/6 mice. Kind of assay: LPS-stimulated IL-12 p70 production in peritoneal macrophages from C57BL/6 mice. The format is cell-based.
In assay [6] the test system is peritoneal macrophages isolated from MRL mice. In words: LPS-stimulated IL-12 p70 production in peritoneal macrophages from MRL lpr/lpr mice. The format is cell-based. The following applies: for IL-12 p70 production, simultaneous treatment with LPS and test substance: LPS 100 ng/ml, various concentrations, 8-week-old and 39-week-old MRL mice (FIG. 6; L4L4 FIG. 12). Here is the method: Five to seven milliliters of ice-cooled Hank's balanced salt solution was injected in the abdominal cavities of 8- to 39-week-old MRL lpr/lpr mice and extracted 5 minutes later to collect resident peritoneal cells. The collected cells were cultured overnight in RPMI medium contained in a 96-well flat-bottom plate at 37° C. in the presence of 5% CO2. After the cultivation, non-adherent cells were removed and adherent cells were used as peritoneal macrophages for the experiment.
The cells were treated with lipopolysaccharide (LPS, List Biological Laboratories, Inc.) for 24 hours to stimulate IL-12 production. The concentration of IL-12 p70 in the cell culture supernatant was measured by using an IL-12 p70 ELISA kit (Endogen, Inc.) to evaluate the IL-12 production. As for the measured values, the average value and the standard deviation were obtained. Unless otherwise mentioned, the statistical significance was examined by the Williams' multiple comparison test.
The stimulation was performed for 24 hours in the medium containing LPS (100 ng/ml) and various concentrations of L4, and then the IL-12 production was evaluated.
Macrophages were treated with 100 ng/ml of LPS for 0, 2 or 6 hours, and then the medium was replaced with a fresh medium containing 1000 ng/ml of L4 or a fresh medium only (L4(-)) (consequently, IL-12 produced by the pretreatment was removed). 24 hours after the replacement of the medium, the IL-12 production was evaluated.
First, macrophages were treated with L4 at various concentrations for 24 hours and the medium was replaced with a medium containing 100 ng/ml of LPS. 24 hours after the replacement of the medium, the IL-12 production was evaluated.
The IL-12 production in the macrophages of MRL-lpr/lpr mice, pretreated with or without 1000 ng/ml of L4 for 24 hours then treated with 100 ng/ml of LPS for 24 hours (L4 pretreatment), and the treated with 100 ng/ml LPS together with or without 1000 ng/ml of L4 (simultaneous treatment), were compared. In FIG. 11, * and ** indicate that there was statistical significance at levels of p<0.05 and p<0.01, respectively, according to the Student's t-test.

Assay [7] concerns MRL-lpr/lpr mice. Kind of assay: Biochemical blood test: plasma creatinine (CRE) and urea nitrogen (BUN) in MRL-lpr/lpr mice. To be noted: Example 3; L4 3.2 mg/kg i.n.; 6 weeks; day before autopsy (FIG. 4). The class given is in vivo. As to the method:
9-Week old MRL lpr/lpr mice, C57BL/6 mice and ICR mice were purchased from Japan Charles River Co., Ltd. and preliminarily maintained for 6 weeks before divided into groups. The groups used were as follows.
Each of the test substance was dissolved in distilled water at a predetermined concentration to prepare a solution to be administered. The solution was intermittently administered 3 times per week for 6 weeks (total […]). Observation was performed for 45 days from the start of administration through the autopsy. Other conditions and methods were the same as those of Example 2.
Blood was collected from the orbital venous plexus and plasma creatinine level (CRE) and plasma urea nitrogen level (BUN) were measured by using an automatic analyzer for clinical chemistry (COBAS MIRA S: Nippon Roche) at the time of the grouping and on the day before the autopsy.

In the case of `CC(=O)N[C@H]1C(O)O[C@H](CO)[C@@H](O[C@@H]2O[C@H](COS(=O)(=O)O)[C@H](O)[C@H](O)[C@H]2O)[C@@H]1O` (stereo partly drawn) [L3, Gal(6S)β1-4GlcNAc], in assay [1], the “IL-12 production of macrophages” value is reported as “inhibited IL-12 production of macrophages in a dose-dependent manner”.
Turning to `CC(=O)N[C@H]1C(O)O[C@H](COS(=O)(=O)O)[C@@H](O[C@@H]2O[C@H](COS(=O)(=O)O)[C@H](O)[C@H](O)[C@H]2O)[C@@H]1O` (stereo partly drawn) [L4, Gal(6S)β1-4GlcNAc(6S)], the “IL-12 level in plasma” value in assay [2] (Example 2, L4 1.6 mg/kg i.n. and 80 mg/kg p.o., 3 times per week for 4 weeks, p<0.05/p<0.01 (FIG. 2)) is reported as “significant inhibition of the increase in IL-12”; in assay [2] (Example 3, L4 3.2 mg/kg i.n., 3 times per week for 6 weeks, p<0.01 (FIG. 5)), “significant inhibition of the increase in the IL-12”. The “white blood cell count (WBC) in blood” value in assay [3] (Example 2, low dose L4 administered groups, 3 times per week for 4 weeks, vs DW group, p<0.05 (FIG. 1)) is “significant inhibition of the increase in WBC”; in assay [3] (Example 3, L4 3.2 mg/kg i.n., 3 times per week for 6 weeks, p<0.05 (FIG. 3)), “significant inhibition of the increase in WBC”. In addition, the “IL-12 production in synovial cells at 1000 ng/ml” value in assay [4] (1000 ng/ml L4, 24 hours (FIG. 13)) is recorded as “almost halved”. In assay [4] (24 hours, various L4 concentrations (FIG. 13)), the “IL-12 production in synovial cells” value is on record as “tendency that addition of L4 inhibited IL-12 production”. In addition, the “IL-12 p70 production, stimulation with LPS after pretreatment with L4” value is reported as “The same results were also obtained” in assay [5] (C57BL/6 mice, pretreated with L4 for 36 hours (FIG. 10)) and “L4 pretreatment inhibits the IL-12 production” in assay [6] (L4 various concentrations 24 hours, then LPS 100 ng/ml 24 hours (FIG. 9)). For the same compound, the “IL-12 p70 production, simultaneous treatment with LPS and L4” value in assay [5] (LPS 100 ng/ml, 24 hours, various concentrations of L4, C57BL/6 mice (FIG. 7)) was “The same result was also obtained”. Moreover, the “IL-12 p70 production, L4 pretreatment compared with simultaneous treatment” value in assay [6] (1000 ng/ml L4, 100 ng/ml LPS, 24 hours (FIG. 11)) is given as “inhibits IL-12 production more efficiently compared with the simultaneous treatment”. For the same compound, the “IL-12 p70 production, stimulation with LPS after pretreatment with L4, high doses” value in assay [6] (L4 100 ng/ml or more, 24 hours, then LPS 100 ng/ml 24 hours (FIG. 9)) is “almost completely inhibited”. Further, the “IL-12 p70 production, treatment with L4 after preliminary stimulation with LPS” value in assay [6] (LPS 100 ng/ml for 2 and 6 hours, then 1000 ng/ml L4, 24 hours (FIG. 8)) is reported as “Inhibition of the IL-12 production by L4 was also observed”. Further, the “IL-12 p70 production, simultaneous treatment with LPS and test substance” value in assay [6] (24 hours) is “dose-dependent inhibitory effect on the IL-12 production”. Also, the “plasma creatinine level (CRE)” value in assay [7] is on record as “significant decrease”. Further, the “plasma urea nitrogen level (BUN)” value in assay [7] was “significant decrease”.
Turning to `CC(=O)NC1C(O)OC(COS(=O)(=O)[O-])C(OC2OC(COS(=O)(=O)[O-])C(O)C(OC3OC(COS(=O)(=O)[O-])C(OC4OC(COS(=O)(=O)[O-])C(O)C(O)C4O)C(O)C3NC(C)=O)C2O)C1O.[Na+].[Na+].[Na+].[Na+]` [L4L4, Gal(6S)β1-4GlcNAc(6S)β1-3Gal(6S)β1-4GlcNAc(6S)], the “IL-12 p70 production, simultaneous treatment with LPS and test substance” value in assay [6] (24 hours) is “The same result was obtained”.

These data come from US6436911B1, “IL-12 production inhibitor” (Seikagaku Corporation, priority 1999, dated 2002).
